Measurements: PMC10762035, “Molecular basis of human trace amine-associated receptor 1 activation” (Nature Communications, 2024)
Substitutions are numbered along the chain they refer to. “And” between values parts separate entries of the source, which are not always exact repeats. Equal entries are not always repeated. Where two headings read alike, the source gives them in different places.

Tests used:
Type in all cases: cell-based
[1] = molecular target: T1, hTA1 b2N (Homo sapiens, UniProt Q96RJ0); test: GloSensor cAMP accumulation assay, b2N construct; conditions: b2N, n=2
T1 construct: read by me as the first 25 residues of β2AR (N); expressed in transfected cells; host or cells: HEK293T
T1 sequence (Q96RJ0 with tags, fused parts or gaps): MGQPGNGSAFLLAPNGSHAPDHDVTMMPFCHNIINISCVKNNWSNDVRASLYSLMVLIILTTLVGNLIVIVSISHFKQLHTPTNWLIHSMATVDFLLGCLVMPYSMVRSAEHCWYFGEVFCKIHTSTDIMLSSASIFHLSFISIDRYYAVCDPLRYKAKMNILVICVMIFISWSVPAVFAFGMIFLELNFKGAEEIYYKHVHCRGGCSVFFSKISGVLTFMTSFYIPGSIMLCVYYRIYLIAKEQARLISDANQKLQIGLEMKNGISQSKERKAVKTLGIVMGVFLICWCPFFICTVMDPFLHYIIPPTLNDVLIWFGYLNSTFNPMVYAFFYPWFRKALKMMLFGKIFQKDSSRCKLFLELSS

[2] = molecular target: T2, hTA1 C96S (Homo sapiens, UniProt Q96RJ0, C96S); test: GloSensor cAMP accumulation assay, C96S mutant; conditions: log[Compound]
T2 construct: expressed in transfected cells; host or cells: HEK293T
T2 sequence (Q96RJ0 1-339 C96S): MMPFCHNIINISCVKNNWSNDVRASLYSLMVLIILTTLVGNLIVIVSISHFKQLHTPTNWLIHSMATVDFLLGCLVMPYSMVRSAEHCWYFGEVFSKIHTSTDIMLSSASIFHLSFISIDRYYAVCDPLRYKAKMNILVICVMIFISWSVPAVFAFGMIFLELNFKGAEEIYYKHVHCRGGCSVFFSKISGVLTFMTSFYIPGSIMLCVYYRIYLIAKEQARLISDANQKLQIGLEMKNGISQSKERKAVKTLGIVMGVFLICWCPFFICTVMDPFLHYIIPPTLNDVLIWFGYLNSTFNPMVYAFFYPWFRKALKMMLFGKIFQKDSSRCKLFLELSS

[3] = molecular target: T3, hTA1 C178S (Homo sapiens, UniProt Q96RJ0, C178S); test: GloSensor cAMP accumulation assay, C178S mutant; conditions: for C178S - Normalized Luminescence Counts (N=2): log[Compound], single replicates
T3 construct: expressed in transfected cells; host or cells: HEK293T
T3 sequence (Q96RJ0 1-339 C178S): T2 sequence (Q96RJ0 1-339 C96S) with S96C, C178S

[4] = molecular target: T4, hTA1 S107C (Homo sapiens, UniProt Q96RJ0, S107C); test: GloSensor cAMP accumulation assay, S107C mutant;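 note: cells transiently co-expressing receptor and GloSensor biosensor, luminescence read after 30 min agonist exposure at room temperature, concentration-response fitted by nonlinear regression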
T4 construct: expressed in transfected cells; host or cells: HEK293T
T4 sequence (Q96RJ0 1-339 S107C): T2 sequence (Q96RJ0 1-339 C96S) with S96C, S107C

[5] = molecular target: T5, hTA1 V184P (Homo sapiens, UniProt Q96RJ0, V184P); test: GloSensor cAMP accumulation assay, V184P mutant; conditions: for cAMP accumulation response, single replicate values (source data, Supplementary Figure 5): hTA1 V184P (N=2), log[Compound]
T5 construct: expressed in transfected cells; host or cells: HEK293T
T5 sequence (Q96RJ0 1-339 V184P): T2 sequence (Q96RJ0 1-339 C96S) with S96C, V184P

SMILES: NCCc1ccc(O)cc1 [TYR, tyramine]
- EC50 ([1]; read-out: EC50): 151 nM
- Emax ([1]; read-out: Span ± SEM (Emax normalized to β-PEA)): 99.5 ± 1%
- Normalized Luminescence Counts ([2]; C96S, M = -5, single replicates (N=2)): 1.4045 and 3.382 and -0.5726 and -0.7614 and 6.985 and 24.4145
- Normalized Luminescence Counts ([2]; C96S, M = -5.522, single replicates (N=2)): 0.08646 and 2.064 and -0.5726 and 5.048 (2×) and 10.8582
- Normalized Luminescence Counts ([2]; C96S, M = -6, single replicates (N=2)): -1.891 and 1.4045 and -2.55 and -0.7614 and 5.048 and -8.508
- Normalized Luminescence Counts ([2]; C96S, M = -6.522, single replicates (N=2)): -0.5726 and -3.209 and -2.55 and -6.571 (2×) and -2.698
- Normalized Luminescence Counts ([2]; C96S, M = -7, single replicates (N=2)): 0.08646 and 0.7455 and -2.55 and -0.7614 and -4.6346 and -2.698
- Normalized Luminescence Counts ([2]; C96S, M = -7.522, single replicates (N=2)): -1.232 and -0.5726 and 0.7455 and 1.175 and -2.698 and 3.112
- Normalized Luminescence Counts ([2]; C96S, M = -8, single replicates (N=2)): 2.064 and 0.7455 and -0.5726 and 3.112 and 24.4145 and -12.381
- Normalized Luminescence Counts ([2]; C96S, M = -8.522, single replicates (N=2)): -1.891 and 0.08646 and -1.232 and 6.985 and 10.8582 and 12.7948
- Normalized Luminescence Counts ([2]; C96S, M = -9, single replicates (N=2)): -1.232 and -0.5726 and -1.891 and 1.175 and -4.6346 and 6.985
- Normalized Luminescence Counts ([2]; C96S, M = -9.522, single replicates (N=2)): -3.209 and -0.5726 and -3.868 and 8.922 and 55.4002 and 6.985
- Normalized Luminescence Counts ([2]; C96S, M = -10, single replicates (N=2)): -1.232 and 0.08646 (2×) and 5.048 and 3.112 and 12.7948
- Normalized Luminescence Counts ([2]; C96S, M = -10.522, single replicates (N=2)): -0.5726 and 2.064 and 0.08646 and 6.985 and -4.6346 and -0.7614
- Normalized Luminescence Counts ([2]; C96S, M = -11, single replicates (N=2)): 0.7455 and 2.723 and -1.232 and 3.112 (2×) and 10.8582
- Normalized Luminescence Counts ([2]; C96S, M = -11.522, single replicates (N=2)): -0.5726 and 3.382 and -2.55 and -8.508
- Normalized Luminescence Counts ([2]; M = -11.522, single replicates, mutant block above C178S): -0.1784 and -0.1556 and -0.3377 and 0.3752 and 3.634 and 2.245
- Normalized Luminescence Counts ([2]; M = -12, single replicates, mutant block above C178S): 0.04925 and -0.1556 and -0.3149 and 0.2684 and 2.352 and 1.711
- Normalized Luminescence Counts ([2]; M = -12.522, single replicates, mutant block above C178S): -0.4515 and -0.588 and -0.5653 and 1.283 and 1.3903 and 1.07
- ΔpEC50 values (each mutant value - WT average), Mean ([3]; C178S, each row one experiment (N=2), 3 replicates): 0.02169 and 0.1822
- EC50 ([3]; C178S, each row one experiment (N=2), 3 replicates, read-out: pEC50 values, Mean (converted)): 395 nM and 273 nM
- EC50 ([3]; C178S, n=2, read-out: EC50): 328 nM
- Emax ([3]; C178S, n=2, read-out: Span ± SEM (Emax normalized to β-PEA)): 98.4 ± 1.77%
- Emax values, Mean ([3]; C178S, β-PEA = 100, each row one experiment (N=2), 3 replicates): 100.127
- Emax ([3]; C178S, β-PEA = 100, each row one experiment (N=2), 3 replicates, read-out: Emax values, Mean): 96.6%
- C178S - Normalized Luminescence Counts (N=2) ([3]; M = -5): 91.979 and 95.8576 and 102.026 and 75.3904 and 102.974 and 107.581
- C178S - Normalized Luminescence Counts (N=2) ([3]; M = -5.522): 87.8668 and 77.3994 and 76.8387 and 82.4508 and 101.179 and 88.1949
- C178S - Normalized Luminescence Counts (N=2) ([3]; M = -6): 67.8199 and 64.4086 and 66.1843 and 84.2459 and 87.7162 and 94.2082
- C178S - Normalized Luminescence Counts (N=2) ([3]; M = -6.522): 42.5859 and 50.2963 and 40.4364 and 48.0464 and 47.119 and 50.6791
- C178S - Normalized Luminescence Counts (N=2) ([3]; M = -7): 17.0716 and 19.2212 and 22.0717 and 25.7583 and 28.0918 and 27.3439
- C178S - Normalized Luminescence Counts (N=2) ([3]; M = -7.522): 4.922 and 5.576 and 4.735 and 10.3511 and 8.496 and 10.8597
- C178S - Normalized Luminescence Counts (N=2) ([3]; M = -8): 0.8565 and 3.099 and 2.0247 and 3.141 and 5.295 and 4.428
- C178S - Normalized Luminescence Counts (N=2) ([3]; M = -8.522): -0.4052 and -0.03139 and 0.3892 and 0.9572 and 2.034 and 4.517
- C178S - Normalized Luminescence Counts (N=2) ([3]; M = -9): -1.013 and -1.2 and 0.1555 and -0.5985 and 0.02978 and 0.3589
- C178S - Normalized Luminescence Counts (N=2) ([3]; M = -9.522): -0.5454 and -1.1529 and -1.2 and -0.9575 and 1.615 and 1.376
- C178S - Normalized Luminescence Counts (N=2) ([3]; M = -10): -0.4052 and -0.07812 and -0.966 and 0.5982 and 1.645 and 1.346
- C178S - Normalized Luminescence Counts (N=2) ([3]; M = -10.522): -0.7791 and -0.3118 and -0.5921 and -2.214 and -0.2395 and -1.047
- C178S - Normalized Luminescence Counts (N=2) ([3]; M = -11): -0.8258 and -0.3585 and -1.106 and 0.08961 and 2.782 and 2.932
- C178S - Normalized Luminescence Counts (N=2) ([3]; M = -11.522): -0.1716 and 0.1555 and 0.1088 and 1.047 and 3.051 and 2.303
- C178S - Normalized Luminescence Counts (N=2) ([3]; M = -12): -0.9193 and -0.3118 and -0.6389 and 0.6281 and 2.423 and 2.214
- C178S - Normalized Luminescence Counts (N=2) ([3]; M = -12.522): 0.2023 and -0.07812 and -0.03139 and -1.077 and 1.944 and 2.603
- ΔEmax values (each mutant value - WT average) ([4]; S107C mutant minus WT average): 8.654
- Emax values, Mean ([4]; S107C mutant, β-PEA = 100, each line an independent experiment, 3 replicates): 107.638 and 133.074
- EC50 ([4]; S107C, n=2, read-out: EC50): 186 nM
- Emax ([4]; S107C, n=2, read-out: Span ± SEM (Emax normalized to β-PEA)): 120%
- reduction in potency vs wild type ([5]; V184P): 4 fold
- EC50 ([5]; V184P, n=2, read-out: EC50): 1490 nM
- Emax ([5]; V184P, n=2, read-out: Span ± SEM (Emax normalized to β-PEA)): 105 ± 5.68%
- cAMP accumulation response, single replicate values (source data, Supplementary Figure 5) ([5]; M = -5): 66.7204 and 110.557 and 88.2354 and 80.832 and 102.751 and 95.962
- cAMP accumulation response, single replicate values (source data, Supplementary Figure 5) ([5]; M = -5.522): 68.2965 and 82.5176 and 84.3869 and 52.6087 and 59.3978 and 71.1332
- cAMP accumulation response, single replicate values (source data, Supplementary Figure 5) ([5]; M = -6): 47.9177 and 50.0802 and 42.1633 and 41.1642 and 31.9504 and 31.2715
- cAMP accumulation response, single replicate values (source data, Supplementary Figure 5) ([5]; M = -6.522): 19.512 and 25.4864 and 24.1669 and 21.0878 and 21.7667 and 21.1848
- cAMP accumulation response, single replicate values (source data, Supplementary Figure 5) ([5]; M = -7): 8.113 and 10.3856 and 10.972 and 5.085 and 4.018 and 3.436
- cAMP accumulation response, single replicate values (source data, Supplementary Figure 5) ([5]; M = -7.522): 1.736 and 1.149 and 1.113 and 1.69 (2×) and 1.5934
- cAMP accumulation response, single replicate values (source data, Supplementary Figure 5) ([5]; M = -8): 1.479 and 2.432 and 2.102 and -0.4433 and -0.3463 and 0.1386
- cAMP accumulation response, single replicate values (source data, Supplementary Figure 5) ([5]; M = -8.522): 0.0496 and 0.8926 and 2.065 and -0.3463 and 0.4296 and -0.05538
- cAMP accumulation response, single replicate values (source data, Supplementary Figure 5) ([5]; M = -9): -0.2803 and 1.809 and 0.9293 and -0.4433 and -0.2494 (2×)
- cAMP accumulation response, single replicate values (source data, Supplementary Figure 5) ([5]; M = -9.522): -0.3536 and -0.06036 and -0.6835 and -0.05538 (2×) and 0.04161
- cAMP accumulation response, single replicate values (source data, Supplementary Figure 5) ([5]; M = -10): 0.4894 and -0.09701 and -0.5368 and 0.04161 and -0.3463 and -0.05538
- cAMP accumulation response, single replicate values (source data, Supplementary Figure 5) ([5]; M = -10.522): -0.4269 and 0.4528 and -0.94 and 0.04161 and 0.5265 and -0.05538
- cAMP accumulation response, single replicate values (source data, Supplementary Figure 5) ([5]; M = -11): 0.1229 and 0.4528 and 0.0496 and -0.2494 and -0.4433 and 0.1386
- cAMP accumulation response, single replicate values (source data, Supplementary Figure 5) ([5]; M = -11.522): -0.2436 and 1.039 and -0.2803 and 0.04161 and 0.5265 and 0.3326
- cAMP accumulation response, single replicate values (source data, Supplementary Figure 5) ([5]; M = -12): -0.1337 and -0.5368 and -0.7568 and 0.1386 and 0.5265 (2×)
- cAMP accumulation response, single replicate values (source data, Supplementary Figure 5) ([5]; M = -12.522): 1.113 and 0.5994 and -0.5368 and 1.399 and 1.302 and 1.69
- EC50 ([5]; hTA1 V184P mutant, Figure 3B source data, each grid row a separate experiment, 3 replicates, read-out: pEC50 values (Mean) (converted)): 2180 nM and 1020 nM
- Emax values, Mean ([5]; hTA1 V184P mutant, β-PEA set to 100, each grid row a separate experiment, 3 replicates): 99.5188
- Emax ([5]; hTA1 V184P mutant, β-PEA set to 100, each grid row a separate experiment, 3 replicates, read-out: Emax values (Mean)): 111%
